Test results as given in patent US20170157212A1, “CDK MODULATORS AND METHODS FOR THE TREATMENT OF CANCER” (Salk Institute for Biological Studies, priority 2015, published 2017).

Tests used:
[1] = test system: CDK12; assay: In vitro kinase assay: CDK12 phosphorylation of recombinant 4E-BP1 (S65, T70); type: biochemical, human; conditions: reactions with CDK12 and mTORC1/Raptor, dose-dependent
Description: (§1) (A) CRIF1 and CDK12 have opposite effects on global RNAPII CTD-Ser2P levels in vivo. U2OS cells were transfected with indicated siRNAs for 48 hr, and RNAPII phosphorylation was monitored by immunoblot using phospho-specific CTD (Ser2P and Ser5P) antibodies. (B) Knockdown of CRIF1 up-regulates CHK1 expression and induction of p53. […] (C) Analysis of steady-state mRNA levels by qRT-PCR in extracts from U2OS cells exposed to control (CTL) or CRIF1-specific siRNAs, as indicated. (D) Depletion of CRIF1 enhances 4E-BP1 phosphorylation at S65 and T70 in vivo, as assessed by immunoblot using phospho-specific antibodies. (E) CRIF1 inhibits RNAPII CTD-Ser2 phosphorylation by CDK12 complexes in vitro. The human GST-CTD (52 repeat) protein was incubated in vitro with the affinity-purified HA-CDK12 kinase complex in the absence or presence of increasing levels of purified recombinant CRIF1, and analyzed by immunoblot with the indicated antisera. […] Analysis of GST-CTD Ser2 phosphorylation was carried out as described in (E), using the affinity-purified FLAG-CDK9 kinase. (G) CRIF1 inhibits 4E-BP1 phosphorylation by CDK12 in vitro. […] was monitored by immunoblot in the absence or in the presence of different levels of affinity-purified recombinant CRIF1. […]

[2] = target: T1, mTORC1/Raptor kinase complex (Homo sapiens, UniProt P42345); assay: In vitro kinase assay: mTORC1 phosphorylation of recombinant 4E-BP1 (T37/46); type: biochemical; conditions: same reactions with CDK12 and mTORC1/Raptor
T1 construct: made in house
Description: To enable priming of 4E-BP1 by mTORC1, these reactions contained both affinity-purified CDK12 and the mTORC1/Raptor kinase complexes. […] Consistent with a gain-of-function for CDK12 kinase activity in CRIF1 knockdown cells, enhanced binding of eIF4G to target mRNAs was observed (FIG. 6H, upper panel) that were identified previously by RIP-seq, with no effects on total mRNA levels (FIG. 6H, bottom panel).

[3] = target: T2, affinity-purified CDK12 kinase complex (Homo sapiens, UniProt Q9NYV4); assay: In vitro kinase assay: CDK12 phosphorylation of RNAPII GST-CTD; type: biochemical; conditions: human GST-CTD (52 repeat), increasing levels of recombinant CRIF1, immunoblot, dose-dependent
T2 construct: made in house
T2 sequence (Q9NYV4 whole entry): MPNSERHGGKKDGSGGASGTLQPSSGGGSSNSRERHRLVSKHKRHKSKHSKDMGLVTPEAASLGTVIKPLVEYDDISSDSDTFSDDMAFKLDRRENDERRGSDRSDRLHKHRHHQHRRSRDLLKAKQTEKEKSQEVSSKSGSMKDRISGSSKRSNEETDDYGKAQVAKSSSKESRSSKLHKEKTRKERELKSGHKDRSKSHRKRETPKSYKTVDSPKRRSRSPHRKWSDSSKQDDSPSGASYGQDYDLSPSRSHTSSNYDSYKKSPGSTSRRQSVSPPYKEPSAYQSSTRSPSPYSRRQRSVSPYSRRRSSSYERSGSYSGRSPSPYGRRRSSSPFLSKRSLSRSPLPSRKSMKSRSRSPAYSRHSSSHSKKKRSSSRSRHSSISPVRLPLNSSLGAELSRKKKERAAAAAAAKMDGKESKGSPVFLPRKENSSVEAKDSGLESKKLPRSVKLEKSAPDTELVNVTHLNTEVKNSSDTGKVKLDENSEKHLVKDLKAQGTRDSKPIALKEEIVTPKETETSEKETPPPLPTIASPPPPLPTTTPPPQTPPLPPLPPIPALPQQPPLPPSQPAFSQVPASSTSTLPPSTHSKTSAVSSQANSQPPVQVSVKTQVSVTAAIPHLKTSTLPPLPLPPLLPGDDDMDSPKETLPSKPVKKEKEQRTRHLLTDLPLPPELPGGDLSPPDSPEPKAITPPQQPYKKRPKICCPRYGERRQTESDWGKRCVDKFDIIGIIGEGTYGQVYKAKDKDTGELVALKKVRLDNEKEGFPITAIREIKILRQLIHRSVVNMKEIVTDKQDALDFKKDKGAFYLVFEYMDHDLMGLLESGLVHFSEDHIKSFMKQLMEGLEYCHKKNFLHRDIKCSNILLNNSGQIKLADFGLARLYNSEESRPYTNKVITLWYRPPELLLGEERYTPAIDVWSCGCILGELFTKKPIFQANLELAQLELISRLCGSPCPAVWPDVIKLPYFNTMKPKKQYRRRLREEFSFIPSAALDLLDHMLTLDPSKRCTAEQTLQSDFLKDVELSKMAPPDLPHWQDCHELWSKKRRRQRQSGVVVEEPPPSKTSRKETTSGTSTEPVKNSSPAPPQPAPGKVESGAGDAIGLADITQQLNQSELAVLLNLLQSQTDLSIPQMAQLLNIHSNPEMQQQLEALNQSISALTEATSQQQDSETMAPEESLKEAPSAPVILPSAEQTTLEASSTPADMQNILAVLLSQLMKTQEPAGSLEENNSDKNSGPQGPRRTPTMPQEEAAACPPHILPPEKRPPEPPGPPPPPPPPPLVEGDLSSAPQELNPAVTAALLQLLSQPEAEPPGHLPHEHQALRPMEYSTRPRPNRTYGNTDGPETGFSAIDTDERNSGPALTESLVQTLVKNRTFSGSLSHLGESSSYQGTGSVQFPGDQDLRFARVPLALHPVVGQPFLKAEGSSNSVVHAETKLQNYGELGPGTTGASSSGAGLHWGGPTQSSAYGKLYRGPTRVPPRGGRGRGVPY
T2 sequence (O75909 whole entry partner): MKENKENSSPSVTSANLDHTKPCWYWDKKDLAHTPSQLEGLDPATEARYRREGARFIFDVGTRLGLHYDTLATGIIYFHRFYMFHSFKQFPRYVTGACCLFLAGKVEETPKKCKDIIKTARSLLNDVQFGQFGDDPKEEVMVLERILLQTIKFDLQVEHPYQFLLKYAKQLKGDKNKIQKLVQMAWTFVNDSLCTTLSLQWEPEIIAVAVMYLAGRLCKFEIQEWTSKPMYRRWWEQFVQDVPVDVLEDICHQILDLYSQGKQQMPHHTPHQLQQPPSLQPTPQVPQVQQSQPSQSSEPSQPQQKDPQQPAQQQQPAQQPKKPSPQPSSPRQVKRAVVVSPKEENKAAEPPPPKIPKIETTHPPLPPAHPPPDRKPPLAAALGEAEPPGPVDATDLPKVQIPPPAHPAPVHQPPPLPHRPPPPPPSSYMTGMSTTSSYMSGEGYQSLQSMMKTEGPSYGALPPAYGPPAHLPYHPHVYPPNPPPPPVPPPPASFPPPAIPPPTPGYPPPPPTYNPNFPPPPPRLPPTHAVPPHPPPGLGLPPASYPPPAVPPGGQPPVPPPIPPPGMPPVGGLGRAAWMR
Description: as §1

[4] = target: T3, affinity-purified CDK9/P-TEFb complex (Homo sapiens, UniProt P50750); assay: In vitro kinase assay: CDK9/P-TEFb phosphorylation of GST-CTD; type: biochemical; conditions: affinity-purified FLAG-CDK9 kinase, immunoblot
T3 construct: FLAG; made in house
T3 sequence (P50750 whole entry): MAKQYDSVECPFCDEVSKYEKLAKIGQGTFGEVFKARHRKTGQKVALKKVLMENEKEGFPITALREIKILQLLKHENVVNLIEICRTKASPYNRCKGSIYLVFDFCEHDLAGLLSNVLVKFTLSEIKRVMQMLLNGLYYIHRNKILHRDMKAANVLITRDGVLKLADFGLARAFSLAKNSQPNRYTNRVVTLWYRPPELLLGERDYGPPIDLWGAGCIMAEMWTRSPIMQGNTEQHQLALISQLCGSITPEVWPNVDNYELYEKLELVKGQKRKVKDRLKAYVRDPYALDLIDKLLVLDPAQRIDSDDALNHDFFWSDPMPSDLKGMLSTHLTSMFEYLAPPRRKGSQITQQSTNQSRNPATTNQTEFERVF
T3 sequence (O60563 whole entry partner): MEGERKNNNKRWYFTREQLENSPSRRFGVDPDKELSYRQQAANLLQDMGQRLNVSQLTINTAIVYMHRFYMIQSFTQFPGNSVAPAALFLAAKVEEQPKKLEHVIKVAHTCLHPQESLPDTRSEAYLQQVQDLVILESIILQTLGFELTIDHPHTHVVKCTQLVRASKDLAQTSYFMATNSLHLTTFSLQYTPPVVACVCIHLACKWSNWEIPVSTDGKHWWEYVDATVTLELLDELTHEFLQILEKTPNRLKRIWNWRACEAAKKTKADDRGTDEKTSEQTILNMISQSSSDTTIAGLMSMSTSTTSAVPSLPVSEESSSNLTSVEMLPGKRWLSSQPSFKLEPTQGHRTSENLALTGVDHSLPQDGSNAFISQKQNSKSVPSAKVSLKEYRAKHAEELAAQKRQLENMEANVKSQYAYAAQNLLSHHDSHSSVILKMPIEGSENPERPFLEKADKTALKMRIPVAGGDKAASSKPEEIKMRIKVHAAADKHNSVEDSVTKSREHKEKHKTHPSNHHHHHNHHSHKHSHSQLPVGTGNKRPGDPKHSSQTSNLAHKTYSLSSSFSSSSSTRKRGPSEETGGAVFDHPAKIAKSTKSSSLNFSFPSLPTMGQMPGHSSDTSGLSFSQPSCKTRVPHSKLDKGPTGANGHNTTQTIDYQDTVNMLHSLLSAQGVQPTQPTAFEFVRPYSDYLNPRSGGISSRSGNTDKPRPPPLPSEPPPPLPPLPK
Description: as §1

Sequence of CDK12 (Q9NYV4 whole entry): as the sequence (Q9NYV4 whole entry) above
Sequence of CDK12 (O75909 whole entry partner): as the sequence (O75909 whole entry partner) above

Growth Arrest and DNA Damage-Inducible Proteins-Interacting Protein 1 [CRIF1]
S65 and T70 phosphorylation of 4E-BP1 by CDK12 [1]: inhibits
S65 and T70 phosphorylation of 4E-BP1 by CDK12 ([1]; listed as rCRIF1): potently and selectively inhibited
phosphorylation of the T37/46 sites of 4E-BP1 by mTORC1 [2]: without affecting
CDK12-mediated phosphorylation of the human GST-CTD substrate (RNAPII CTD-Ser2) [3]: inhibits
CDK12-mediated phosphorylation of the human GST-CTD substrate (RNAPII CTD-Ser2) ([3]; listed as recombinant CRIF1): potently inhibited
CDK9/P-TEFb phosphorylation of the GST-CTD substrate ([4]; listed as Recombinant CRIF1): does not inhibit
CDK9/P-TEFb phosphorylation of the GST-CTD substrate ([4]; listed as rCRIF): no effect
